Assay results: US20180028480A1, “METHODS OF REDUCING OR PREVENTING OXIDATIVE MODIFICATION OF MEMBRANE POLYUNSATURATED FATTY ACIDS” (Amarin Pharmaceuticals Ireland Limited, priority 2015, published 2018)

Test system: sdLDL
Assay: Copper-induced sdLDL oxidation (Example 7)
Assay type: biochemical, human
Details: 10.0 μM; copper-induced oxidation 1 hour
Protocol: An experiment to study the antioxidant effect of EPA in small dense LDL (“sdLDL”) was performed. sdLDL was isolated from human plasma by isopycnic centrifugation, separated into test samples of 200 μg/mL, and incubated at 37° C. for 30 min in the absence (vehicle) or presence of EPA, fenofibrate, niacin, or gemfibrozil, each at 10.0 μM. All samples, with the exception of non-oxidized sdLDL controls, were subjected to copper-induced oxidation for 1 hour. Human umbilical vein endothelial cells (HUVECs) were incubated with the various sdLDL samples, stimulated with calcium, and monitored for nitric oxide (NO) and peroxynitrite (ONOO^−) release using nanosensor technology.

## CC/C=C\C/C=C\C/C=C\C/C=C\C/C=C\CCCC(=O)O [EPA, cis-5,8,11,14,17-Eicosapentaenoic acid]
  reduction of sdLDL oxidation compared to vehicle treatment: > 90%
